Measurements: patent US20130267474A1, “NOVEL PHYTOCHEMICALS FROM EXTRACTS OF MAPLE SYRUPS AND MAPLE TREES AND USES THEREOF” (UNIVERSITY OF RHODE ISLAND, priority 2010, published 2013)
Like-named read-outs stand apart in the source and are kept apart here.

Legend:
[1] = DPPH radical scavenging (antioxidant) assay; format: biochemical; conditions: Table 10; mean ± standard deviation; 30 min, 515 nm; read-out: IC50 (μM), DPPH radical scavenging
Experimental: The DPPH radical scavenging activity of ascorbic acid (vitamin C) and the synthetic commercial antioxidant, butylated hydroxytoluene (BHT) are also assayed as positive controls (see Table 10). […] Absorbance is determined after 30 min at 515 nm, and the scavenging capacity (SC) is calculated as SC %=[(A0−A1/A0)]×100, where A0 is the absorbance of the reagent blank and A1 is the absorbance of the test samples. The control contained all reagents except the compounds, and all tests are performed in triplicate.
Absorbance is determined after 30 min at 515 nm, and the scavenging capacity (SC) is calculated as SC %=[(A0−A1/A0)]×100 where A0 is the absorbance of the reagent blank, and A1 is the absorbance with test samples. The control contained all reagents except the compounds and all tests are performed in triplicate.

[2] = tested on: HT-29 (human colon adenocarcinoma); test: MTS cytotoxicity / antiproliferative assay; format: cell-based
Experimental: (§1) Cell lines included three human colon cancer cells: HT-29 (human colon adenocarcinoma), HCT116 (human colon carcinoma) and Caco-2 (human epithelial colorectal adenocarcinoma). In addition, normal human colon cells are included: CCD-^18Co (human colon fibroblasts). All cell lines are obtained from the American Type Culture Collection (ATCC, Rockville, Md., USA) and maintained at the University of Rhode Island.
(§2) The assay is carried out to measure the IC50 values for samples. […] Test samples and a positive control, etoposide 4 mg/mL (Sigma), are solubilized in DMSO by sonication. […] Control wells are also included on all plates. […] Each point on the curve is […]. Data (see tables 6 to 9) are expressed as mean±SE for three replications on each cell line.

[3] = tested on: Caco-2 (human epithelial colorectal adenocarcinoma); test: MTS cytotoxicity / antiproliferative assay; format: cell-based
Experimental: as §1, §2

[4] = tested on: HCT-116 (human colon carcinoma); test: MTS cytotoxicity / antiproliferative assay; format: cell-based
Experimental: as §1, §2

[5] = Homo sapiens, HT-29, 48 h, read-out: Antiproliferative activity HT-29 48 h (IC50), 48 h, pure isolated compounds
[6] = Homo sapiens, HT-29, 72 h, 72 h, pure isolated compounds, read-out: Antiproliferative activity HT-29 72 h (IC50)
[7] = Homo sapiens, HCT-116, 48 h, read-out: Antiproliferative activity HCT-116 48 h (IC50), 48 h, pure isolated compounds
[8] = Homo sapiens, HCT-116, 72 h, 72 h, pure isolated compounds, read-out: Antiproliferative activity HCT-116 72 h (IC50)
[9] = Homo sapiens, HCT-116, 72 h, 72 h, range given for the group, read-out: IC50 against HCT-116 cells at 72 h (activity ranking)

For COc1cc(C(O)C(CO)Oc2ccc(C(O)C(O)CO)cc2OC)ccc1O (stereo not drawn) [compound 28], which IC50 [1] is on record?
The IC50 was 814 ± 37.7 µM.

For COc1cc([C@@H](O)[C@@H](CO)Oc2ccc(CCCO)cc2OC)ccc1O [compound 29, threo-guaiacylglycerol-β-O-4′-dihydroconiferyl alcohol], which IC50 [1] is on record?
The IC50 was 139 ± 13.3 µM.

Which IC50 [1] does the source give for COc1cc(C(O)C(CO)Oc2c(OC)cc(CCCO)cc2OC)ccc1O (stereo not drawn) [compound 30, erythro-1-(4-hydroxy-3-methoxyphenyl)-2-[4-(3-hydroxypropyl)-2,6-dimethoxyphenoxy]-1,3-propanediol] here?
Its IC50 is 904 µM.

Which IC50 [2, 5] does the source give for Oc1ccc(O)c(O)c1 [compound 52, 4-hydroxycatechol] here?
Its IC50 is 110 ± 2.3 µM.

What about the IC50 [2, 6] of the same compound?
The IC50 was 100 ± 1.5 µM.

What about the IC50 ([3]; Homo sapiens, Caco-2, 48 h, read-out: Antiproliferative activity Caco-2 48 h (IC50), 48 h, pure isolated compounds) of the same compound?
Its IC50 is 89.2 ± 1.9 µM.

And the IC50 ([3]; Homo sapiens, Caco-2, 72 h, 72 h, pure isolated compounds, read-out: Antiproliferative activity Caco-2 72 h (IC50))?
Its IC50 is 78.6 ± 1.2 µM.

What about the IC50 [4, 7] of the same compound?
The IC50 was 95 ± 3.4 µM.

What about the IC50 [4, 8] of the same compound?
Its IC50 is 57.7 ± 3.4 µM.

And the IC50 [4, 9]?
The IC50 was 42 to 67 µM.

What does the source list for COc1cc(CCCO)ccc1OC(CO)C(O)c1ccc(OC2OC(C)C(O)C(O)C2O)c(OC)c1 (stereo not drawn) [compound 55]?
IC50 [2, 5]: 128.2 ± 1.1 µM; IC50 [2, 6]: 121 ± 1.3 µM; IC50 [4, 7]: 119 ± 1.4 µM; IC50 [4, 8]: 104 ± 1.7 µM; IC50 [4, 9]: 94 to 110 µM

With O=C(O[C@H]1CO[C@H](CO)[C@@H](O)[C@@H]1O)c1cc(O)c(O)c(O)c1 [compound 72, ginnalin-C] as the compound, how does the “HT-29 48 h IC50” value ([2]; 48 h, ginnalins) read?
Its value is 33.8 ± 2.0 µg/mL.

What about the “HT-29 72 h IC50” value ([2]; 72 h, ginnalins) of the same compound?
Its value is 30.1 ± 1.3 µg/mL.

And the IC50 ([2]; Table 6 maple compounds, 72 h, unit inferred, read-out: HT-29 72 h(IC50))?
The IC50 was 95.4 µM.

And the IC50 ([2]; read-out: HT-29 48 h(IC50), Table 6 maple compounds, 48 h, unit inferred)?
The IC50 was 107 µM.

What about the “Caco-2 48 h IC50” value ([3]; 48 h, ginnalins) of the same compound?
Its value is 35.0 ± 1.4 µg/mL.

What about the “Caco-2 72 h IC50” value ([3]; 72 h, ginnalins) of the same compound?
Its value is 29.8 ± 1.2 µg/mL.

What about the IC50 ([3]; Table 6 maple compounds, 72 h, unit inferred, read-out: Caco-2 72 h(IC50)) of the same compound?
Its IC50 is 94.4 µM.

And the IC50 ([3]; read-out: Caco-2 48 h(IC50), Table 6 maple compounds, 48 h, unit inferred)?
The IC50 was 111 µM.

What about the “HCT-116 48 h IC50” value ([4]; 48 h, ginnalins) of the same compound?
The value was 27.0 ± 1.9 µg/mL.

And the “HCT-116 72 h IC50” value ([4]; 72 h, ginnalins)?
Its value is 22.3 ± 2.4 µg/mL.

And the IC50 ([4]; Table 6 maple compounds, 72 h, unit inferred, read-out: HCT-116 72 h(IC50))?
Its IC50 is 70.7 µM.

What about the IC50 ([4]; read-out: HCT-116 48 h(IC50), Table 6 maple compounds, 48 h, unit inferred) of the same compound?
The IC50 was 86.5 µM.

With O=C(O)/C=C/c1ccc(O)cc1 [p-Coumaric Acid] as the compound, how does the IC50 ([4]; Homo sapiens, HCT-116, 72 h, Table 6 maple compounds, 72 h, unit inferred, read-out: HCT-116 72 h(IC50)) read?
Its IC50 is 124 µM.

For catechaldehyde [compound 14], which IC50 [1] is on record?
The IC50 was 694 ± 110 µM.

With catechol [compound 23] as the compound, how does the IC50 [1] read?
Its IC50 is 10100 ± 1670 µM.

For dehydroconiferyl alcohol [compound 3], which IC50 [1] is on record?
Its IC50 is 925 ± 179 µM.

Which IC50 [1] does the source give for gallic acid [compound 17] here?
The IC50 was 703 ± 141 µM.

Which IC50 [1] does the source give for lyoniresinol [compound 1] here?
The IC50 was 946 ± 58.5 µM.

Which IC50 [1] does the source give for syringaldehyde [compound 16] here?
The IC50 was 2880 ± 44 µM.

For syringic acid [compound 19], which IC50 [1] is on record?
The IC50 was 258 ± 33.8 µM.

Which IC50 [1] does the source give for “trimethyl gallic acid methyl ester [compound 18]” here?
The IC50 was 112 ± 5.1 µM.
